For test [1], the system named is dissociated rat P5-9 CGN cultures. Kind of test: Cerebellar granule neuron (CGN) neurite outgrowth assay. It counts as cell-based. As to conditions: PD98059 25; AG1478 15 nM; Y27632 5 μM; JNK inhibitor II 10 μM. On the procedure: Nitric acid-treated, 15-mm round German glass coverslips are coated with P-Orn in pH 6-8.5 borate buffer (at approximately 50 μg/ml) for about 1 hr at 37° C. and 5% CO2. CSPGs (at approximately 1 μg/ml) or polysaccharides enriched in the CS-A, CS-C, or CS-E sulfation motifs (at approximately 1 μg/ml) are coated on the P-Orn-coated coverslips overnight at 37° C. and 5% CO2. Cerebella from P5-9 Sprague Dawley rats are dissected, purified as described above, and cultured on the coated coverslips at a cell density of about 200 cells/mm^2. Neurons are grown in DMEM/F12, 1% FBS, and N1 supplement for about 24 hr.
In one example, inhibitors against MEK (PD98059, 25 μM; Calbiochem), EGFR (AG1478, 15 nM; Calbiochem), ROCK (Y27632, 5 μM; Calbiochem) and JNK (JNK Inhibitor II, 10 μM; Calbiochem) are added in solution at the start of culturing, and neurons are grown for 24 hr. For neurite outgrowth experiments from p75 knockout mice, cerebella from P5-7 mice, either C57BL/6 wild-type or p75−/− knockout mice, are dissected and purified as described above. Neurons are plated at a density of 200-300 cells/mm2 and cultured for about 24 hr. Cells are then fixed in 4% PFA/10% sucrose, immunostained with neuronal specific anti-class III β-tubulin antibody (TUJ1; Covance), and evaluated for neurite outgrowth. Neurons are imaged using a Nikon TE2000-S fluorescent microscope and quantified using the NIH software Image J. Statistical analysis is performed using the one-way ANOVA; n=50-200 cells per experiment.
P7 rat CGNs are grown for 24 hours on CS-E (1 μg/ml) in the presence of the CS-E antibody (CS-E Ab; 10 μg/ml).

Test [2] can be described thus: Surface plasmon resonance, binding to CS-E-enriched polysaccharides. The conditions noted are these: SPR; read-out: dissociation constant (Kd). As to the method:
Surface plasmon resonance experiments can be used to provide quantitative measurements of the binding kinetics or affinity between two or more molecules such as proteins, peptides, and small molecules. All experiments are performed on a Biacore T100 at 25° C. using a Sensor Chip CM5 with a running buffer composed of 0.01 M HEPES, pH 7.4, 0.15 M NaCl, 3 mM EDTA, 0.05% Surfactant P20 (HBS-EP^+). To analyze the binding of anti-CS-E antibody to the CS-E tetrasaccharide, both control and active flow cells are exposed to a 1:1 mixture of N-hydroxysuccinimide hydroxysuccinimide (NHS) and 1-ethyl-3,3-dimethylaminopropyl-carbodiimide (EDC) for 1-10 min at a flow rate of about 10 μL·min^−1. […] The kinetics of the anti-CS-E antibody/CS-E tetrasaccharide interaction is determined by approximately 300 s long injections of anti-CS-E antibody at about 30 μL·min^−1. The dissociation is monitored for about 900 s before the surface is regenerated with a 30 s injection of 6 M guanidine HCl. […] Affinity analysis is measured by injecting the antibody for about 3600 s at 5 μL·min^−1. […] The data is analyzed by plotting the response at equilibrium versus concentration and fitting the resulting curve to the Langmuir equation. […]
In another example, utilizing the surface plasmon resonance methods described, data was generated to quantify measurements of the binding kinetics between CS-E and the binding partner EphA4. […]
A general note: SPR reads the build-up and loss of mass on a sensor chip optically.

A short description of test [3]: Carbohydrate microarray, binding to CS-E. On the procedure: The concentrations of the solutions range from 250 nM to 40 μM, and are calibrated to one another using the carbazole assay for uronic acid residue. A given concentration of each polysaccharide is spotted five to ten times at different positions on the array. A boundary is created around the polysaccharide spots on the slides using a hydrophobic slide marker (Super Pap Pen, Research Products International) and the slides are blocked with 5-10% fetal bovine serum (FBS) in PBS with gentle rocking at 37 ° C. for about 1 hr, followed by a brief rinse with PBS. Human NgR-Fc or mouse EphB2-Fc (R & D Systems) is reconstituted in 1% BSA in PBS, added to the bound region on the slides in 100 μl quantities at a concentration of 1-2 μM, and incubated at room temperature for about 3 hr. The slides are briefly rinsed three times with PBS, and then incubated with a goat anti-human IgG antibody conjugated to Cy3 (1:5000 in PBS) for 1 hr in the dark with gentle rocking. After rinsing two times with PBS and once with H2O, the microarray is analyzed at 532 nm using a GenePix 5000a scanner, and fluorescence quantification is performed using GenePix 6.0. Binding of the anti-CS-E antibody is evaluated using 100 μl of a 1 μg/ml (˜7 nM) solution of antibody and a goat anti-mouse IgG secondary antibody conjugated to Cy3 (1:5000 in PBS). […]

Consider 6 molecules from patent US20110020359A1, “METHODS AND COMPOSITIONS FOR TREATING NEURONAL DAMAGE OR DEGENERATION” (California Institute of Technology, priority 2009, published 2011).

As to `COc1cc2ncnc(Nc3cccc(Cl)c3)c2cc1OC` [AG1478], the “rescue of CS-E- and CSPG-mediated inhibition of neurite outgrowth” value in test [1] is given as “rescue”.

Consider `O=C1c2ccccc2-c2n[nH]c3cccc1c23` [JNK inhibitor II], for which the “rescue of CS-E- and CSPG-mediated inhibition of neurite outgrowth” value in test [1] was “no effect”.

As to `C[C@@H](N)[C@H]1CC[C@H](C(=O)Nc2ccncc2)CC1` [Y27632], the “rescue of CS-E- and CSPG-mediated inhibition of neurite outgrowth” value in test [1] is “rescue”.

For `COc1cccc(-c2cc(=O)c3ccccc3o2)c1N` [PD98059], in test [1], the “rescue of CS-E- and CSPG-mediated inhibition of neurite outgrowth” value is reported as “rescue”.

B1: EfnA3: Ephrin A3, ligand that activates Eph receptors (protein, UniProt P52797 23-214, looked up)
Ephrin-A3: QGPGGALGNRHAVYWNSSNQHLRREGYTVQVNVNDYLDIYCPHYNSSGVGPGAGPGPGGGAEQYVLYMVSRNGYRTCNASQGFKRWECNRPHAPHSPIKFSEKFQRYSAFSLGYEFHAGHEYYYISTPTHNLHWKCLRMKVFVCCASTSHSGEKPVPTLPQFTMGPNVKINVLEDFEGENPQVPKLEKSISG
Turning to B1, the Kd (as a rule, a measure of binding affinity in units of concentration) in test [2] amounted to 65 nM. For the same molecule, the “binding to CS-E-enriched polysaccharides on carbohydrate microarrays” value in test [3] was “selectively bind”.

B2: EfnB1: Ephrin B1, ligand that activates Eph receptors (protein, UniProt P98172 28-346, looked up)
Ephrin-B1: LAKNLEPVSWSSLNPKFLSGKGLVIYPKIGDKLDIICPRAEAGRPYEYYKLYLVRPEQAAACSTVLDPNVLVTCNRPEQEIRFTIKFQEFSPNYMGLEFKKHHDYYITSTSNGSLEGLENREGGVCRTRTMKIIMKVGQDPNAVTPEQLTTSRPSKEADNTVKMATQAPGSRGSLGDSDGKHETVNQEEKSGPGASGGSSGDPDGFFNSKVALFAAVGAGCVIFLLIIIFLTVLLLKLRKRHRKHTQQRAAALSLSTLASPKGGSGTAGTEPSDIIIPLRTTENNYCPHYEKVSGDYGHPVYIVQEMPPQSPANIYYKV
Turning to B2, the Kd in test [2] worked out at 138 nM. Also, the “binding to CS-E-enriched polysaccharides on carbohydrate microarrays” value in test [3] is on record as “selectively bind”.
